According to patent US8134015B2, “Compound inhibiting in vivo phosphorous transport and medicine containing the same” (Kyowa Hakko Kirin Co., Ltd., priority 2003, dated 2012):
Where a name gives a salt, the structure may show the parent alone.

Target: T1, rat NaPi-2b (Rattus norvegicus, UniProt Q9JJ09)
T1 construct: expressed in transfected cells; host or cells: Xenopus oocytes injected with cRNA
T1 sequence (Q9JJ09 1-695): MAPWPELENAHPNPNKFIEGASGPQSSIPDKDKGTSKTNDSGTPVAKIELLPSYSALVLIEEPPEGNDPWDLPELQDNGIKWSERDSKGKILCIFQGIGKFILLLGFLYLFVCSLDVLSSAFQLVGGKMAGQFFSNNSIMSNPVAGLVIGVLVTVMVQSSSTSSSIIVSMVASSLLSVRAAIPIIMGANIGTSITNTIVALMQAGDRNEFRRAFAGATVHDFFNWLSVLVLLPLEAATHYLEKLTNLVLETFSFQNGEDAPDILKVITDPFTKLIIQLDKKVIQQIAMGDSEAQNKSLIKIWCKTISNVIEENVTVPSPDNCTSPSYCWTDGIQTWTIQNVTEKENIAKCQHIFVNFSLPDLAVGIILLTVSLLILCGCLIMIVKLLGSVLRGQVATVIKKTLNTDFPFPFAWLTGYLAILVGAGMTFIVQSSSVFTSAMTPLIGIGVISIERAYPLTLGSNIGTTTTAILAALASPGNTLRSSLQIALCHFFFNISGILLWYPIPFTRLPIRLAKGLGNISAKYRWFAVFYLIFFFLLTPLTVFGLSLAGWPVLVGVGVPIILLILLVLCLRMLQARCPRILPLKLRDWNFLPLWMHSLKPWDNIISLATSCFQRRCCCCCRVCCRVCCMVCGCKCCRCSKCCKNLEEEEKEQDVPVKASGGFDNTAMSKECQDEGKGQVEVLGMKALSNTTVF
Experiment: Sodium-dependent phosphate uptake of Xenopus oocytes which expressed NaPi-2b (32P)
Assay type: cell-based
Conditions: for inhibition at 300 µM: phosphate uptake, oocytes expressing rat NaPi-2b, determined from inhibition curve; for IC50: Xenopus oocytes expressing rat NaPi-2b, 32P radioactive phosphorus, read-out: IC50 (phosphate uptake inhibitory activity)
Summary of the method: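 Steps: rat NaPi-2b cDNA cloned from small intestine; cRNA made and injected into oocytes; 2-day expression; 32P phosphate uptake with compound; % inhibition at 300/100 μM taken from one curve.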

Compound | inhibition at 300 µM | IC50
CCOCCN(CCOCC)Cc1ccc(C(=O)Nc2ccc(Br)cc2C(=O)N/N=C/c2ccc(F)cc2)cc1 [Compound 736, 4-{[Bis-(2-ethoxy-ethyl)-amino]-methyl}-N-[4-bromo-2-(4-fluoro-benzylidene-hydrazinocarbonyl)-phenyl]-benzamide] | 61.5% | 
CCSCCNCc1ccc(C(=O)Nc2ccc(Br)cc2C(=O)N/N=C/c2ccc(OC)cc2)cc1 [Compound 770, N-[4-Bromo-2-(4-methoxy-benzylidene-hydrazinocarbonyl)-phenyl]-4-[(2-ethylsulfanyl-ethylamino)-methyl]-benzamide] |  | 16.5 µM
CCN(CC)CCN(C)Cc1cccc(C(=O)Nc2ccc(Cl)cc2C(=O)N/N=C/c2cccc(O)c2)c1 [Compound 387, N-[4-Chloro-2-(3-hydroxy-benzylidene-hydrazinocarbonyl)-phenyl]-3-{[(2-diethylamino-ethyl)-methyl-amino]-methyl}-benzamide] |  | 6.45 µM
Cc1ccc(/C=N/NC(=O)c2cscc2NC(=O)c2cccc(CN3CCN(CCO)CC3)c2)cc1C [Compound 982, N-[4-(3,4-Dimethyl-benzylidene-hydrazinocarbonyl)-thiophen-3-yl]-3-[4-(2-hydroxy-ethyl)-piperazin-1-ylmethyl]-benzamide] |  | 8.05 µM
O=C(Nc1sccc1C(=O)N/N=C/c1cccc(F)c1)c1cccc(CSCCCO)c1 [Compound 661, N-[3-(3-Fluoro-benzylidene-hydrazinocarbonyl)-thiophen-2-yl]-3-(3-hydroxy-propylsulfanylmethyl)-benzamide] |  | < 10 µM
O=C(Nc1ccccc1C(=O)N/N=C/c1cccc(O)c1)c1ccccc1F [Compound 39, 2-Fluoro-N-[2-(3-hydroxy-benzylidene-hydrazinocarbonyl)-phenyl]-benzamide] |  | 9.24 µM
CCN1CC(NCc2ccc(-c3nc4ccc(Br)cc4c(=O)n3/N=C/c3cccc(F)c3)cc2)CN1CC [Compound 751, 6-Bromo-2-{4-[(1,2-diethyl-pyrazolidin-4-ylamino)-methyl]-phenyl}-3-[(3-fluoro-benzylidene)-amino]-3H-quinazolin-4-one] |  | 13.1 µM
Cc1cccc(/C=N/NC(=O)c2cscc2NC(=O)c2cccc(CN(CC(C)O)CC(C)O)c2)c1 (stereo not drawn) [Compound 975, 3-{[Bis-(2-hydroxy-propyl)-amino]-methyl}-N-[4-(3-methyl-benzylidene-hydrazinocarbonyl)-thiophen-3-yl]-benzamide] |  | 17.4 µM
O=C(Nc1ccccc1C(=O)N/N=C/c1ccc(F)cc1)c1cccc(F)c1 [Compound 82, 3-Fluoro-N-[2-(4-fluoro-benzylidene-hydrazinocarbonyl)-phenyl]-benzamide] |  | 6.03 µM
Cc1cccc(/C=N/NC(=O)c2ccccc2NC(=O)c2ccc(F)cc2)c1 [Compound 78, 4-Fluoro-N-[2-(3-methyl-benzylidene-hydrazinocarbonyl)-phenyl]-benzamide] |  | 7.17 µM
COc1ccc(C(=O)Nc2cc(OC)c(OC)cc2C(=O)N/N=C/c2ccccc2C)cc1OC [Compound 230, N-[4,5-Dimethoxy-2-(2-methyl-benzylidene-hydrazinocarbonyl)-phenyl]-3,4-dimethoxy-benzamide] | 50.4% | 
CCN(CC)CCN(C)Cc1cccc(C(=O)Nc2ccc(I)cc2C(=O)N/N=C/c2ccc(O)cc2)c1 [Compound 481, 3-{[(2-Diethylamino-ethyl)-methyl-amino]-methyl}-N-[2-(4-hydroxy-benzylidene-hydrazinocarbonyl)-4-iodo-phenyl]-benzamide] |  | 12.1 µM

Second part, the molecule after the results:

inhibition at 300 µM | IC50 | Compound
 | 0.64 µM | COc1ccc(C(=O)Nc2ccccc2C(=O)N/N=C/c2ccc(OC)c(Br)c2)cc1 [Compound 100, N-[2-(3-Bromo-4-methoxy-benzylidene-hydrazinocarbonyl)-phenyl]-4-methoxy-benzamide]
 | 0.43 µM | O=C(Nc1sc2c(c1C(=O)N/N=C/c1cccc(F)c1)CCCC2)c1cccc(CSCCCO)c1 [Compound 607, N-[3-(3-Fluoro-benzylidene-hydrazinocarbonyl)-4,5,6,7-tetrahydro-benzo[b]thiophen-2-yl]-3-(3-hydroxy-propylsulfanylmethyl)-benzamide]
 | 3.29 µM | CCN(CC)CCN(C)Cc1cccc(C(=O)Nc2sc3c(c2C(=O)N/N=C/c2ccc(OC)cc2)CCCC3)c1 [Compound 614, 3-{[(2-Diethylamino-ethyl)-methyl-amino]-methyl}-N-[3-(4-methoxy-benzylidene-hydrazinocarbonyl)-4,5,6,7-tetrahydro-benzo-[b]thiophen-2-yl]-benzamide]
 | 0.51 µM | Cc1cccc(/C=N/NC(=O)c2cc(Br)ccc2NC(=O)c2ccccn2)c1 [Compound 497, Pyridin-2-carboxylic acid [4-bromo-2-(3-methyl-benzylidene-hydrazinocarbonyl)-phenyl]-amide]
 | < 3 µM | C/C(=N\NC(=O)c1cc(Br)ccc1NC(=O)c1cccnc1)c1cccc(C)c1 [Compound 215, N-[4-Bromo-2-(1-m-toluyl-ethylidene-hydrazinocarbonyl)-phenyl]-nicotinamide]
 | 1.15 µM | O=C(Nc1ccc(Br)cc1C(=O)N/N=C/c1cccc(F)c1)c1ccc(CN2CCC(O)CC2)cc1 [Compound 328, N-[4-Bromo-2-(3-fluoro-benzylidene-hydrazinocarbonyl)-phenyl]-4-(4-hydroxy-piperidin-1-ylmethyl)-benzamide]
 | 1.77 µM | CCN(CC)CCN(CCN(CC)CC)Cc1cccc(C(=O)Nc2sc3c(c2C(=O)N/N=C/c2ccc(OC)cc2)CCCC3)c1 [Compound 856, 3-{[Bis-(2-diethylamino-ethyl)-amino]-methyl}-N-[3-(4-methoxy-benzylidene-hydrazinocarbonyl)-4,5,6,7-tetrahydro-benzo[b]thiophen-2-yl]-benzamide; hydrochloride]
 | < 3 µM | Cc1ccc(C=NNC(=O)c2cc(Cl)ccc2NC(=O)c2cccc(CS(=O)(=O)CCO)c2)cc1C [Compound 493, N-[4-Chloro-2-(3,4-dimethyl-benzylidene-hydrazinocarbonyl)-phenyl]-3-(2-hydroxy-ethanesulfonylmethyl)-benzamide]
 | 3.68 µM | O=C(Nc1sc2c(c1C(=O)N/N=C/c1ccc(F)cc1)CCCC2)c1cccc(CN2CCC(N3CCCCC3)CC2)c1 [Compound 617, 3-[1,4′]Bipiperidinyl-1′-ylmethyl-N-[3-(4-fluoro-benzylidene-hydrazinocarbonyl)-4,5,6,7-tetrahydro-benzo[b]thiophen-2-yl]-benzamide]
 | 3.67 µM | CN(CCO)Cc1cccc(C(=O)Nc2ccc(Cl)cc2C(=O)N/N=C/c2ccc(Cl)c(C(F)(F)F)c2)c1 [Compound 399, N-[4-Chloro-2-(4-chloro-3-trifluoromethyl-benzylidene-hydrazinocarbonyl)-phenyl]-3-{[(2-hydroxy-ethyl)-methyl-amino]-methyl}-benzamide]
 | 4.19 µM | CCN(CC)CCN(CCN(CC)CC)Cc1cccc(C(=O)Nc2scc(C)c2C(=O)N/N=C/c2ccc(OC)cc2)c1 [Compound 843, 3-{[Bis-(2-diethylamino-ethyl)-amino]-methyl}-N-[3-(4-methoxy-benzylidene-hydrazinocarbonyl)-4-methyl-thiophen-2-yl]-benzamide]
 | < 3 µM | COc1ccc(C(=O)Nc2ccc(I)cc2C(=O)N/N=C/c2cccc(F)c2)cc1OC [Compound 204, N-[2-(3-Fluoro-benzylidene-hydrazinocarbonyl)-4-iodo-phenyl]-3,4-dimethoxy-benzamide]
